Laboratory results as given in PubChem BioAssay (NCI).
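Results reflect a 48-hour exposure of cells in 96-well plates to compound at five concentrations. The concentration for 50% growth inhibition is given as GI50. TGI denotes the concentration required for complete inhibition of growth.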

Legend:
Assay in all cases: NCI-60 cell line screen, 48 h
[1] = system: 786-0 renal
[2] = system: A498 renal
[3] = system: A549 NSCLC
[4] = system: ACHN renal
[5] = system: BT-549 breast
[6] = system: CAKI-1 renal
[7] = system: CCRF-CEM leukemia
[8] = system: COLO 205 colon
[9] = system: DU-145 prostate
[10] = system: EKVX NSCLC
[11] = system: HCC-2998 colon
[12] = system: HCT-116 colon
[13] = system: HCT-15 colon
[14] = system: HL-60(TB) leukemia
[15] = system: HOP-62 NSCLC
[16] = system: HOP-92 NSCLC
[17] = system: HS 578T breast
[18] = system: HT29 colon
[19] = system: IGROV1 ovarian
[20] = system: K-562 leukemia
[21] = system: KM12 colon
[22] = system: LOX IMVI melanoma
[23] = system: M14 melanoma
[24] = system: MALME-3M melanoma
[25] = system: MCF7 breast
[26] = system: MDA-MB-231 breast
[27] = system: MDA-MB-435
[28] = system: MOLT-4 leukemia
[29] = system: NCI-H226 lung
[30] = system: NCI-H23 lung
[31] = system: NCI-H460 lung
[32] = system: NCI-H522 lung
[33] = system: NCI/ADR-RES ovarian
[34] = system: OVCAR-3 ovarian
[35] = system: OVCAR-4 ovarian
[36] = system: OVCAR-5 ovarian
[37] = system: OVCAR-8 ovarian
[38] = system: PC-3 prostate
[39] = system: RPMI-8226 leukemia
[40] = system: RXF 393 renal
[41] = system: SF-268 CNS
[42] = system: SF-295 CNS
[43] = system: SF-539 CNS
[44] = system: SK-MEL-2 melanoma
[45] = system: SK-MEL-28 melanoma
[46] = system: SK-MEL-5 melanoma
[47] = system: SK-OV-3 ovarian
[48] = system: SN12C renal
[49] = system: SNB-19 CNS
[50] = system: SNB-75 CNS
[51] = system: SR leukemia
[52] = system: SW-620 colon
[53] = system: T-47D breast
[54] = system: TK-10 renal
[55] = system: U251 CNS
[56] = system: UACC-257 melanoma
[57] = system: UACC-62 melanoma
[58] = system: UO-31 renal

`CC(C)CSc1nc(Nc2ccccc2)c(C#N)c(-c2ccc(F)cc2)n1` gave a GI50 [1] of 1.9 µM, a TGI [1] of 5.19 µM and a GI50 [2] of 1.19 µM. The TGI [2] was 6.13 µM, the GI50 [3] was 1.71 µM and the TGI [3] was 18.8 µM. The GI50 [4] was 0.403 µM, the TGI [4] was 1.47 µM and the GI50 [5] was 7.24 µM. It also gave a TGI [5] of 32.3 µM, a GI50 [6] of 0.486 µM and a TGI [6] of 2.46 µM. For the same molecule, the GI50 [7] was 5.53 µM, the TGI [7] was > 100 µM and the GI50 [8] was 1.86 µM. It also gave a TGI [8] of 20.1 µM, a GI50 [9] of 11 µM and a TGI [9] of 27.7 µM. It also gave a GI50 [10] of 1.73 µM, a TGI [10] of 16.5 µM and a GI50 [11] of 13.1 µM. For the same molecule, the TGI [11] was > 100 µM, the GI50 [12] was 2.01 µM and the TGI [12] was 11.9 µM. For the same molecule, the GI50 [13] was 9.06 µM, the TGI [13] was > 100 µM and the GI50 [14] was > 100 µM. For the same molecule, the TGI [14] was > 100 µM, the GI50 [15] was 2.1 µM and the TGI [15] was 12.9 µM. For the same molecule, the GI50 [16] was 0.605 µM, the TGI [16] was 2.63 µM and the GI50 [17] was 1.6 µM. For the same molecule, the TGI [17] was 11 µM, the GI50 [18] was 14.5 µM and the TGI [18] was > 100 µM. For the same molecule, the GI50 [19] was 0.702 µM, the TGI [19] was 10 µM and the GI50 [20] was 5.31 µM. For the same molecule, the TGI [20] was > 100 µM, the GI50 [21] was 48.2 µM and the TGI [21] was > 100 µM. For the same molecule, the GI50 [22] was 2.98 µM, the TGI [22] was 21.4 µM and the GI50 [23] was 6 µM. It also gave a TGI [23] of 21 µM, a GI50 [24] of 2.27 µM and a TGI [24] of 10.6 µM. For the same molecule, the GI50 [25] was 22.8 µM, the TGI [25] was > 100 µM and the GI50 [26] was 2.25 µM. It also gave a TGI [26] of 13 µM, a GI50 [27] of 13 µM and a TGI [27] of 42.2 µM. For the same molecule, the GI50 [28] was 11 µM, the TGI [28] was > 100 µM and the GI50 [29] was 3.79 µM. For the same molecule, the TGI [29] was 20.1 µM, the GI50 [30] was 6.35 µM and the TGI [30] was 28.7 µM. It also gave a GI50 [31] of 0.806 µM, a TGI [31] of 12.1 µM and a GI50 [32] of 14.4 µM. It also gave a TGI [32] of 71.4 µM, a GI50 [33] of 4.87 µM and a TGI [33] of 25.3 µM. For the same molecule, the GI50 [34] was 1.11 µM, the TGI [34] was 4.22 µM and the GI50 [35] was 0.335 µM. For the same molecule, the TGI [35] was 1.16 µM, the GI50 [36] was 4.03 µM and the TGI [36] was 24 µM. The GI50 [37] was 3.27 µM, the TGI [37] was 16.1 µM and the GI50 [38] was 18.1 µM. For the same molecule, the TGI [38] was 81.2 µM, the GI50 [39] was 5.49 µM and the TGI [39] was > 100 µM. For the same molecule, the GI50 [40] was 1.75 µM, the TGI [40] was 6.18 µM and the GI50 [41] was 4.41 µM. It also gave a TGI [41] of 22.7 µM, a GI50 [42] of 0.971 µM and a TGI [42] of 11.4 µM. The GI50 [43] was 2.5 µM, the TGI [43] was 13.3 µM and the GI50 [44] was 13.7 µM. For the same molecule, the TGI [44] was 30.2 µM, the GI50 [45] was 12.2 µM and the TGI [45] was 35.5 µM. For the same molecule, the GI50 [46] was 24.7 µM, the TGI [46] was 82.4 µM and the GI50 [47] was 8.13 µM. It also gave a TGI [47] of 32.5 µM, a GI50 [48] of 0.597 µM and a TGI [48] of 3.14 µM. It also gave a GI50 [49] of 2.45 µM, a TGI [49] of 13.2 µM and a GI50 [50] of 1.24 µM. It also gave a TGI [50] of 5.21 µM, a GI50 [51] of 0.976 µM and a TGI [51] of 14 µM. The GI50 [52] was 8.63 µM, the TGI [52] was > 100 µM and the GI50 [53] was 2.97 µM. It also gave a TGI [53] of 32.8 µM, a GI50 [54] of 1.61 µM and a TGI [54] of 6.33 µM. The GI50 [55] was 0.652 µM, the TGI [55] was 2.78 µM and the GI50 [56] was 10.3 µM. For the same molecule, the TGI [56] was 33.3 µM, the GI50 [57] was 16.5 µM and the TGI [57] was 43.5 µM. It also gave a GI50 [58] of 2.04 µM and a TGI [58] of 22.1 µM.
